Assay results reported in ChEMBL document CHEMBL3885881, “DrugMatrix”.

Species: Rattus norvegicus
Test: DrugMatrix - Regimen: Daily Repeat
Type: toxicity, organism-based, Sprague-Dawley
Design: regimen Daily Repeat, gender Male, age 6-8 weeks
Conditions: in vivo, iv, vehicle 100 % SALINE; for ABSOLUTE BASOPHIL / ABSOLUTE EOSINOPHIL / ABSOLUTE LYMPHOCYTE / ABSOLUTE MONOCYTE / ABSOLUTE SEGMENTED NEUTROPHIL / BASOPHIL / EOSINOPHIL / ERYTHROCYTE COUNT / HEMATOCRIT / HEMOGLOBIN / LEUKOCYTE COUNT / LYMPHOCYTE / MEAN CORPUSCULAR HEMOGLOBIN / MEAN CORPUSCULAR HEMOGLOBIN CONCENTRATION / MEAN CORPUSCULAR VOLUME / MONOCYTE / NUCLEATED RED BLOOD CELLS / PLATELET COUNT: tissue Blood; for ALANINE AMINOTRANSFERASE / ALBUMIN / ALKALINE PHOSPHATASE / ASPARTATE AMINOTRANSFERASE / BLOOD UREA NITROGEN / CARBON DIOXIDE / CHLORIDE / CHOLESTEROL / CREATINE PHOSPHOKINASE / CREATININE / GLUCOSE / LACTATE DEHYDROGENASE / PHOSPHORUS / POTASSIUM / SODIUM / TOTAL BILIRUBIN / TOTAL PROTEIN / URIC ACID: tissue Plasma
[1] = 25 mg/kg, 72 h, dose level Low, time 3 day
[2] = 25 mg/kg, 120 h, dose level Low, time 5 day
[3] = 160 mg/kg, 72 h, dose level High, time 3 day
[4] = 160 mg/kg, 120 h, dose level High, time 5 day

With `CN[C@H](CC(C)C)C(=O)N[C@H]1C(=O)N[C@@H](CC(N)=O)C(=O)N[C@H]2C(=O)N[C@H]3C(=O)N[C@H](C(=O)N[C@H](C(=O)O)c4cc(O)cc(O)c4-c4cc3ccc4O)[C@H](O)c3ccc(c(Cl)c3)Oc3cc2cc(c3O[C@@H]2O[C@H](CO)[C@@H](O)[C@H](O)[C@H]2O[C@H]2C[C@](C)(N)[C@H](O)[C@H](C)O2)Oc2ccc(cc2Cl)[C@H]1O` [VANCOMYCIN] the “ABSOLUTE BASOPHIL” value [1] was 0 CELLS/uL, the “ABSOLUTE EOSINOPHIL” value [1] was 39.33 CELLS/uL and the “ABSOLUTE LYMPHOCYTE” value [1] was 11516.33 CELLS/uL. The “ABSOLUTE MONOCYTE” value [1] was 255.67 CELLS/uL, the “ABSOLUTE SEGMENTED NEUTROPHIL” value [1] was 1222 CELLS/uL and the BASOPHIL [1] was 0%. The EOSINOPHIL [1] was 0.33%, the “ERYTHROCYTE COUNT” value [1] was 5.26 x10E6/uL and the HEMATOCRIT [1] was 34.27%. The HEMOGLOBIN [1] was 13.57 G/DL, the “LEUKOCYTE COUNT” value [1] was 13.03 x10E3/uL and the LYMPHOCYTE [1] was 88.33%. For the same compound, the “MEAN CORPUSCULAR HEMOGLOBIN” value [1] was 25.87 pg, the “MEAN CORPUSCULAR HEMOGLOBIN CONCENTRATION” value [1] was 39.63 G/DL and the “MEAN CORPUSCULAR VOLUME” value [1] was 65.13 fL. For the same compound, the MONOCYTE [1] was 2%, the “NUCLEATED RED BLOOD CELLS” value [1] was 0 /100WBC and the “PLATELET COUNT” value [1] was 1239 x10E3/uL. The “ALANINE AMINOTRANSFERASE” value [1] was 49 u/L, the ALBUMIN [1] was 4.13 G/DL and the “ALKALINE PHOSPHATASE” value [1] was 403 u/L. The “ASPARTATE AMINOTRANSFERASE” value [1] was 88 u/L, the “BLOOD UREA NITROGEN” value [1] was 17.67 mg/dL and the “CARBON DIOXIDE” value [1] was 28 mmol/L. The CHLORIDE [1] was 100.67 MEQ/L, the CHOLESTEROL [1] was 67.33 mg/dL and the “CREATINE PHOSPHOKINASE” value [1] was 365.67 u/L. The CREATININE [1] was 0.22 mg/dL, the GLUCOSE [1] was 144 mg/dL and the “LACTATE DEHYDROGENASE” value [1] was 331.67 u/L. For the same compound, the PHOSPHORUS [1] was 12.13 mg/dL, the POTASSIUM [1] was 6.95 MEQ/L and the SODIUM [1] was 142.77 MEQ/L. The “TOTAL BILIRUBIN” value [1] was 0.23 mg/dL, the “TOTAL PROTEIN” value [1] was 5.77 G/DL and the “URIC ACID” value [1] was 1.33 mg/dL. For the same compound, the “ABSOLUTE BASOPHIL” value [2] was 0 CELLS/uL, the “ABSOLUTE EOSINOPHIL” value [2] was 41.33 CELLS/uL and the “ABSOLUTE LYMPHOCYTE” value [2] was 15492.33 CELLS/uL. The “ABSOLUTE MONOCYTE” value [2] was 306.33 CELLS/uL, the “ABSOLUTE SEGMENTED NEUTROPHIL” value [2] was 660 CELLS/uL and the BASOPHIL [2] was 0%. For the same compound, the EOSINOPHIL [2] was 0.33%, the “ERYTHROCYTE COUNT” value [2] was 5.54 x10E6/uL and the HEMATOCRIT [2] was 34.03%. For the same compound, the HEMOGLOBIN [2] was 13.7 G/DL, the “LEUKOCYTE COUNT” value [2] was 16.5 x10E3/uL and the LYMPHOCYTE [2] was 94%. The “MEAN CORPUSCULAR HEMOGLOBIN” value [2] was 24.73 pg, the “MEAN CORPUSCULAR HEMOGLOBIN CONCENTRATION” value [2] was 40.23 G/DL and the “MEAN CORPUSCULAR VOLUME” value [2] was 61.4 fL. The MONOCYTE [2] was 1.67%, the “NUCLEATED RED BLOOD CELLS” value [2] was 0.33 /100WBC and the “PLATELET COUNT” value [2] was 1313.33 x10E3/uL. For the same compound, the “ALANINE AMINOTRANSFERASE” value [2] was 58.33 u/L, the ALBUMIN [2] was 4.03 G/DL and the “ALKALINE PHOSPHATASE” value [2] was 397.67 u/L. For the same compound, the “ASPARTATE AMINOTRANSFERASE” value [2] was 92.67 u/L, the “BLOOD UREA NITROGEN” value [2] was 17.67 mg/dL and the “CARBON DIOXIDE” value [2] was 31.33 mmol/L. For the same compound, the CHLORIDE [2] was 100 MEQ/L, the CHOLESTEROL [2] was 76.33 mg/dL and the “CREATINE PHOSPHOKINASE” value [2] was 598 u/L. The CREATININE [2] was 0.26 mg/dL, the GLUCOSE [2] was 165.33 mg/dL and the “LACTATE DEHYDROGENASE” value [2] was 117 u/L. For the same compound, the PHOSPHORUS [2] was 11.5 mg/dL, the POTASSIUM [2] was 6.64 MEQ/L and the SODIUM [2] was 144.23 MEQ/L. The “TOTAL BILIRUBIN” value [2] was 0.17 mg/dL, the “TOTAL PROTEIN” value [2] was 5.87 G/DL and the “URIC ACID” value [2] was 1.3 mg/dL. The “ABSOLUTE BASOPHIL” value [3] was 0 CELLS/uL, the “ABSOLUTE EOSINOPHIL” value [3] was 0 CELLS/uL and the “ABSOLUTE LYMPHOCYTE” value [3] was 10993 CELLS/uL. The “ABSOLUTE MONOCYTE” value [3] was 34 CELLS/uL, the “ABSOLUTE SEGMENTED NEUTROPHIL” value [3] was 1339.67 CELLS/uL and the BASOPHIL [3] was 0%. For the same compound, the EOSINOPHIL [3] was 0%, the “ERYTHROCYTE COUNT” value [3] was 5.96 x10E6/uL and the HEMATOCRIT [3] was 37.17%. The HEMOGLOBIN [3] was 14.47 G/DL, the “LEUKOCYTE COUNT” value [3] was 12.37 x10E3/uL and the LYMPHOCYTE [3] was 88.67%. The “MEAN CORPUSCULAR HEMOGLOBIN” value [3] was 24.27 pg, the “MEAN CORPUSCULAR HEMOGLOBIN CONCENTRATION” value [3] was 38.97 G/DL and the “MEAN CORPUSCULAR VOLUME” value [3] was 62.4 fL. The MONOCYTE [3] was 0.33%, the “NUCLEATED RED BLOOD CELLS” value [3] was 0 /100WBC and the “PLATELET COUNT” value [3] was 1496.67 x10E3/uL. The “ALANINE AMINOTRANSFERASE” value [3] was 47.33 u/L, the ALBUMIN [3] was 4.57 G/DL and the “ALKALINE PHOSPHATASE” value [3] was 338 u/L. For the same compound, the “ASPARTATE AMINOTRANSFERASE” value [3] was 86.67 u/L, the “BLOOD UREA NITROGEN” value [3] was 22 mg/dL and the “CARBON DIOXIDE” value [3] was 32 mmol/L. The CHLORIDE [3] was 99 MEQ/L, the CHOLESTEROL [3] was 76 mg/dL and the “CREATINE PHOSPHOKINASE” value [3] was 389.67 u/L. For the same compound, the CREATININE [3] was 0.21 mg/dL, the GLUCOSE [3] was 156.33 mg/dL and the “LACTATE DEHYDROGENASE” value [3] was 197.67 u/L. The PHOSPHORUS [3] was 12.37 mg/dL, the POTASSIUM [3] was 6.51 MEQ/L and the SODIUM [3] was 142.77 MEQ/L. For the same compound, the “TOTAL BILIRUBIN” value [3] was 0.17 mg/dL, the “TOTAL PROTEIN” value [3] was 6.4 G/DL and the “URIC ACID” value [3] was 2.33 mg/dL. For the same compound, the “ABSOLUTE BASOPHIL” value [4] was 0 CELLS/uL, the “ABSOLUTE EOSINOPHIL” value [4] was 126 CELLS/uL and the “ABSOLUTE LYMPHOCYTE” value [4] was 16262 CELLS/uL. The “ABSOLUTE MONOCYTE” value [4] was 538.67 CELLS/uL, the “ABSOLUTE SEGMENTED NEUTROPHIL” value [4] was 2873.33 CELLS/uL and the BASOPHIL [4] was 0%. The EOSINOPHIL [4] was 0.67%, the “ERYTHROCYTE COUNT” value [4] was 5.73 x10E6/uL and the HEMATOCRIT [4] was 35.13%. The HEMOGLOBIN [4] was 14.03 G/DL, the “LEUKOCYTE COUNT” value [4] was 19.8 x10E3/uL and the LYMPHOCYTE [4] was 82.33%. For the same compound, the “MEAN CORPUSCULAR HEMOGLOBIN” value [4] was 24.47 pg, the “MEAN CORPUSCULAR HEMOGLOBIN CONCENTRATION” value [4] was 40 G/DL and the “MEAN CORPUSCULAR VOLUME” value [4] was 61.27 fL. For the same compound, the MONOCYTE [4] was 2.67%, the “NUCLEATED RED BLOOD CELLS” value [4] was 0 /100WBC and the “PLATELET COUNT” value [4] was 1243.33 x10E3/uL. For the same compound, the “ALANINE AMINOTRANSFERASE” value [4] was 47.33 u/L, the ALBUMIN [4] was 3.73 G/DL and the “ALKALINE PHOSPHATASE” value [4] was 287.33 u/L. For the same compound, the “ASPARTATE AMINOTRANSFERASE” value [4] was 77.33 u/L, the “BLOOD UREA NITROGEN” value [4] was 29.67 mg/dL and the “CARBON DIOXIDE” value [4] was 27.67 mmol/L. For the same compound, the CHLORIDE [4] was 99.33 MEQ/L, the CHOLESTEROL [4] was 72.33 mg/dL and the “CREATINE PHOSPHOKINASE” value [4] was 467.33 u/L. For the same compound, the CREATININE [4] was 0.34 mg/dL, the GLUCOSE [4] was 139 mg/dL and the “LACTATE DEHYDROGENASE” value [4] was 171.67 u/L. It also gave a PHOSPHORUS [4] of 10.27 mg/dL, a POTASSIUM [4] of 6.39 MEQ/L and an SODIUM [4] of 143.07 MEQ/L. For the same compound, the “TOTAL BILIRUBIN” value [4] was 0.13 mg/dL, the “TOTAL PROTEIN” value [4] was 6.03 G/DL and the “URIC ACID” value [4] was 1.4 mg/dL.
